Read-outs that look alike come from different tables or passages of the source.
Key:
[1] = test system: metrazol-induced seizures; assay: Time course of antimetrazol activity of prodrugs; type: in vivo, mice (CF1); conditions: 60 mg/kg ip; for responders at 60 mg/kg: Mus musculus
[2] = target: GABA receptor-chloride ionophore complex (GR complex); assay: [35S]TBPS binding modulation assay; conditions: for Max. Inhib., maximal % of specifically bound [35S]-TBPS displaced: saturating concentrations of test compound
progesterone receptor = target: T1, progesterone receptor (Bos taurus, UniProt F1N712); assay: Inhibition of 3H-progesterone binding to bovine uteral progesterone receptors
T1 construct: from tissue; host or cells: bovine uterus cytosol
T1 sequence (F1N712 1-914): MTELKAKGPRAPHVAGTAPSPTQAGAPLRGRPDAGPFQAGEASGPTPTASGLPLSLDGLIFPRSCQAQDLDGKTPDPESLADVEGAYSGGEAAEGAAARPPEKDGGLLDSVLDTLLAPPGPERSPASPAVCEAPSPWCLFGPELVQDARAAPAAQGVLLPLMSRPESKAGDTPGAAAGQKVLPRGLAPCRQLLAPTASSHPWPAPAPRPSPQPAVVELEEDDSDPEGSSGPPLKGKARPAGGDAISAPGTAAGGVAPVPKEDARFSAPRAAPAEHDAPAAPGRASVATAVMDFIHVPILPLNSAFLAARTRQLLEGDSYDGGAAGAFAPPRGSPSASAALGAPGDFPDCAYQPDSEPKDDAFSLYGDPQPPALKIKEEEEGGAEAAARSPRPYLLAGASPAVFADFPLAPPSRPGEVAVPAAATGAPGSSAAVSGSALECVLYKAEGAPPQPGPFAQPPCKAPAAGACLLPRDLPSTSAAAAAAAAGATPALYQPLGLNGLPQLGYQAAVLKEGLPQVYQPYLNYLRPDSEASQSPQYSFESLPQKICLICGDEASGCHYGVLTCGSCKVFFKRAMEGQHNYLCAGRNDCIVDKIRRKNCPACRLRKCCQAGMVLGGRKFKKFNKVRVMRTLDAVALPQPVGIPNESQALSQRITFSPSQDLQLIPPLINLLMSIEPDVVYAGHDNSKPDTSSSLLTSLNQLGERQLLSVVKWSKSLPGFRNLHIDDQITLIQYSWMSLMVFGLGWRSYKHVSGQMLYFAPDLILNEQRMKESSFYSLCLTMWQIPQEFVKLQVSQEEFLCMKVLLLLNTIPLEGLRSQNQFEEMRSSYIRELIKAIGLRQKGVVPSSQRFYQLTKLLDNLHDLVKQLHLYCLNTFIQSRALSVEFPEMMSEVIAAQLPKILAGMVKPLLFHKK
Protocol: The hormonal activity of drugs described herein was further studied through testing their potential estrogenic, progestinic, mineralocorticoid and glucocorticoid activities. These activities were analyzed by monitoring the ability of the drugs to inhibit binding of the steroid hormones to their respective hormone receptors.
For the data presented in Table 9, bovine uteri cytosol was isolated as they were for Table 7 and used for following binding to progesterone receptors by following the inhibition of ^3 H-progesterone, the natural ligand.

[3] = 1 hr, read-out: Antimetrazol activity, % of animals protected, 1 hr
[4] = 4 hr, read-out: Antimetrazol activity, % of animals protected, 4 hr
[5] = read-out: IC50, inhibition of [35S]-TBPS binding, +5 μM GABA, in the presence of 5 μM GABA
[6] = read-out: % of inhibition of 3H-progesterone binding, A, competitor 10^-5 M, 0.15 nM 3H-progesterone
[7] = read-out: % of inhibition of 3H-progesterone binding, B, competitor 10^-5 M, 0.25 nM 3H-progesterone
[8] = washed synaptoneurosomes, no GABA added
[9] = read-out: IC50, inhibition of [35S]-TBPS binding, No GABA, washed synaptoneurosomes, no GABA added
[10] = read-out: % of inhibition of 3H-progesterone binding, A, competitor 10^-6 M, 0.15 nM 3H-progesterone
[11] = read-out: % of inhibition of 3H-progesterone binding, B, competitor 10^-6 M, 0.25 nM 3H-progesterone

SMILES	responders at 60 mg/kg [1, 3]	responders at 60 mg/kg [1, 4]	IC50 [2, 5]	Max. Inhib., maximal % of specifically bound [35S]-TBPS displaced [2]	other results
COc1ccc(C(=O)O[C@@H]2CC[C@@]3(C)[C@@H](CC[C@@H]4[C@@H]3CC[C@]3(C)[C@@H](C(C)=O)CC[C@@H]43)C2)cc1	17%	17%			
C[C@]12CC[C@@H](O)C[C@@H]1CC[C@@H]1[C@@H]2CC[C@]2(C)[C@@H](C(=O)O)CC[C@@H]12 [3α-HYDROXY-5α-ANDROSTAN-17β-CARBOXYLATE, 3α-Hydroxy-5α-androstane-17β-carboxylic acid]			2.68 µM	63%	
CO[C@@H]1C[C@H]2[C@@H]3CC[C@H]4C[C@H](O)CC[C@]4(C)[C@H]3CC[C@]2(C)[C@H]1C(C)=O [3α-HYDROXY-5α-PREGNAN-16α-METHOXY-20-ONE]			4.5 µM	73%	
C[C@H](O)[C@H]1CC[C@H]2[C@@H]3CC[C@@H]4C[C@H](O)CC[C@]4(C)[C@H]3CC[C@]12C [5β-pregnan-3α,20α-diol]					inhibition at 10 µM (progesterone receptor; [6]): 1%; inhibition at 10 µM (progesterone receptor; [7]): 1%
CC(=O)OCC(=O)[C@H]1CC[C@H]2[C@@H]3CC[C@H]4C[C@H](O)CC[C@]4(C)[C@H]3CC[C@]12C	50%	0%			
C/C=C1/CC[C@H]2[C@@H]3CC[C@H]4C[C@H](O)CC[C@]4(C)[C@H]3CC[C@]12C [3α-HYDROXY-5α-CIS-PREGN-17(20)-ENE, 3α-hydroxy-(5α)-cis-pregn-17(20)-ene]			0.068 µM	100%	
CC(=O)[C@H]1CC[C@H]2[C@@H]3CC[C@H]4C[C@@H]5O[C@@H]5C[C@]4(C)[C@H]3CC[C@]12C [2,3-EPOXY-5α-PREGNAN-20-ONE, 2α,3α-Epoxy-5α-pregnan-20-one, reference compound]			100 µM		
C[C@]12CC[C@@H]3c4ccc(O)cc4CC[C@H]3[C@@H]1CC[C@@H]2O [17β-ESTRADIOL, reference compound]				0%	IC50, inhibition of [35S]-TBPS binding, +5 μM GABA ([2]; in the presence of 5 μM GABA): Inactive; IC50, inhibition of [35S]-TBPS binding, No GABA [2, 8]: Inactive
CC(=O)OCC(=O)[C@H]1CC[C@H]2[C@@H]3CC[C@H]4C[C@H](OC(C)=O)CC[C@]4(C)[C@H]3CC[C@]12C	0%	0%			
CCCC(=O)O[C@@H]1CC[C@@]2(C)[C@@H](CC[C@@H]3[C@@H]2CC[C@]2(C)[C@@H](C(C)=O)CC[C@@H]32)C1	75%	13%			
CC(=O)[C@H]1CC[C@H]2[C@@H]3CC[C@H]4C[C@H](O)CC[C@]4(C)[C@H]3C(=O)C[C@]12C [alphaxalone, 5α-PREGNAN-3α-OL-11,20-DIONE, reference compound]			0.264 µM		IC50 [2, 9]: 11 µM
CCC(=O)O[C@@H]1CC[C@@]2(C)[C@@H](CC[C@@H]3[C@@H]2CC[C@]2(C)[C@@H](C(C)=O)CC[C@@H]32)C1	75%	0%			
CC(=O)[C@H]1CC[C@H]2[C@@H]3CC[C@H]4C[C@H](OC(=O)C5=CN(C)C=CC5)CC[C@]4(C)[C@H]3CC[C@]12C	0%	0%			Antimetrazol activity, % of animals protected, 20 hr [1]: 63%
CCCCC(=O)O[C@@H]1CC[C@@]2(C)[C@@H](CC[C@@H]3[C@@H]2CC[C@]2(C)[C@@H](C(C)=O)CC[C@@H]32)C1	33%	33%			Antimetrazol activity, % of animals protected, 20 hr [1]: 33%
C[C@]12CC[C@@H](O)C[C@@H]1CC[C@H]1[C@@H]3CC[C@H](C(=O)CO)[C@@]3(C)CC(=O)[C@@H]12 [5α-PREGNAN-3α,21-DIOL-11,20-DIONE, 5α-PREGNAN-3α,21-DIOL- 11,20-DIONE]			5.5 µM		IC50 [2, 9]: > 100 µM
CC(=O)O[C@@H]1CC[C@@]2(C)[C@@H](CC[C@@H]3[C@@H]2CC[C@]2(C)[C@@H](C(C)=O)CC[C@@H]32)C1 [CH3]	25%				
C[C@]12CCC(=O)C[C@@H]1CC[C@@H]1[C@@H]2CC[C@]2(C)[C@@H](O)CC[C@@H]12 [5α-ANDROSTAN-17β-OL-3-ONE, 5α-ANDROSTAN-17β-OL-3- ONE, reference compound]			18 µM	52%	IC50 [2, 9]: > 100 µM
CC(=O)[C@H]1CC[C@H]2[C@@H]3CC[C@@H]4C[C@H](O)CC[C@]4(C)[C@H]3CC[C@]12C [5β-pregnan-3α,ol-20-one]					inhibition at 10 µM (progesterone receptor; [6]): 17%; inhibition at 1 µM (progesterone receptor; [10]): 9%; inhibition at 10 µM (progesterone receptor; [7]): 13%; inhibition at 1 µM (progesterone receptor; [11]): 1%
CC(=O)[C@H]1CC[C@H]2[C@@H]3CC[C@H]4C[C@H](OC(=O)c5ccc(Cl)cc5)CC[C@]4(C)[C@H]3CC[C@]12C	50%	< 16%			
CC(=O)[C@H]1CC[C@H]2[C@@H]3CC[C@H]4C[C@H](OC(=O)C(C)C)CC[C@]4(C)[C@H]3CC[C@]12C	75%	29%			
CC(=O)[C@H]1CC[C@H]2[C@@H]3CC[C@H]4C[C@@](C)(O)CC[C@]4(C)[C@H]3CC[C@]12C [3β-HYDROXY-3α-METHYL-5α-PREGNAN-20-ONE, 3β-HYDROXY-3α-METHYL-5α- PREGNAN-20-ONE]			7.4 µM	55%	
C[C@]12C[C@H](O)[C@H]3[C@@H](CCC4=CC(=O)CC[C@@]43C)[C@@H]1CC[C@@H]2C(=O)CO [4-PREGNEN-11b,21-DIOL- 3,20-DIONE, reference compound]			> 100 µM	21%	IC50, inhibition of [35S]-TBPS binding, No GABA [2, 8]: Inactive
CC(=O)C1=CC[C@H]2[C@@H]3CC[C@H]4C[C@H](O)CC[C@]4(C)[C@H]3CC[C@]12C [3α-HYDROXY-5α-PREGN-16-EN-20-ONE]			0.161 µM	100%	
C[C@]12CC[C@@H](O)C[C@@H]1CC[C@@H]1[C@@H]2CC[C@]2(C)[C@@H](O)CC[C@@H]12 [5α-ANDROSTAN-3α,17β-DIOL, 5α-ANDROSTAN-3α ,17β-DIOL]			1 µM	100%	IC50 [2, 9]: 15 µM
CC(C)CCC[C@@H](C)[C@H]1CC[C@H]2[C@@H]3CC=C4C[C@@H](O)CC[C@]4(C)[C@H]3CC[C@]12C [CHOLESTEROL, reference compound]				0%	IC50, inhibition of [35S]-TBPS binding, +5 μM GABA ([2]; in the presence of 5 μM GABA): Inactive; potency/activity at the GR complex ([2]; modulation of [35S]TBPS binding): essentially inactive; IC50, inhibition of [35S]-TBPS binding, No GABA [2, 8]: Inactive
C[C@@H](O)[C@H]1CC[C@H]2[C@@H]3CC[C@H]4C[C@H](O)CC[C@]4(C)[C@H]3CC[C@]12C [5α-PREGNAN-3α,20β-DIOL]			1 µM	100%	
CC(=O)[C@H]1CC[C@H]2[C@@H]3CC=C4C[C@@H](O)CC[C@]4(C)[C@H]3CC[C@]12C [5-PREGNEN-3β-OL-20-ONE (PREGNENOLONE), 5-PREGNEN-3β-OL-20-ONE, reference compound]			> 100 µM	30%	IC50, inhibition of [35S]-TBPS binding, No GABA [2, 8]: Inactive
CC(C)(O)[C@H]1CC[C@H]2[C@@H]3CC[C@H]4C[C@](C)(O)CC[C@]4(C)[C@H]3CC[C@]12C [3α,20-dihydroxy-3β,20-dimethyl-5α-pregnane]				50%	inhibition at 10 µM (progesterone receptor; [6]): 5%; inhibition at 1 µM (progesterone receptor; [10]): 8%; inhibition at 10 µM (progesterone receptor; [7]): 0%; inhibition at 1 µM (progesterone receptor; [11]): 0%
C[C@]12CC[C@@H](O)C[C@@H]1CC[C@@H]1[C@@H]2CC[C@]2(C)[C@@H](C(=O)CCl)CC[C@@H]12 [21-CHLORO-5α-PREGNAN-3α-OL-20-ONE]			0.08 µM	100%	
CC(=O)C1=CC[C@H]2[C@@H]3CC[C@@H]4C[C@H](O)CC[C@]4(C)[C@H]3CC[C@]12C [3α-HYDROXY-5β-PREGN-16-EN-20-ONE]			1 µM	100%	
